Source: US20240423995A1, “C-KIT INHIBITORS AND USES FOR TREATING AND PREVENTING INFLAMMATORY CONDITIONS” (GEORGETOWN UNIVERSITY, priority 2023, published 2024)

Experiments:
KIT = target: T1, KIT (Homo sapiens, UniProt P10721); test: KINOMEscan competition binding screen, KIT; details: for remaining binding at 10 µM: lower = stronger binding, read-out: % Ctrl @ 10 μM
T1 construct: purchased Eurofins DiscoverX Corporation
Experimental: (§1) The KINOMEscan™ screening platform (Eurofins DiscoverX Corporation, San Diego, USA) was performed using an active site-directed competition binding assay to quantitatively measure interactions between BK40143, BK40197, BK40195, and BK40196 and more than 450 human kinases and disease relevant mutant variants. […] Screening “hits” were identified by measuring the amount of kinase captured in test (BK40143, BK40197, BK40195, and BK40196) versus control samples by using a quantitative and ultra-sensitive qPCR method that detects the associated DNA label. BK40143, BK40197, BK40195, and BK40196 were screened at 10 μM concentration, and results for primary screen binding interactions were reported as ‘% Ctrl’ (POC), where lower numbers indicate stronger hits and calculated as follows:
(§2) [formula] • test compound=BK40143 or BK40197 or BK40195 or BK40196 • negative control=DMSO (100% Ctrl) • positive control=control compound (0% Ctrl)
(§3) Based on screening data of profiled compounds, a proportional relationship between primary screening results and corresponding compound/target affinities can be described as binding constants (Kd values) for the indicated ranges of percent of control (PoC) values, with tighter binding (higher affinity) interactions associated with lower PoC values, and weaker binding (lower affinity) associated with higher PoC values. Briefly, kinase-tagged T7 phage strains were grown in parallel in 24-well blocks in an E. coli host derived from the BL21 strain. E. coli were grown to log-phase and infected with T7 phage from a frozen stock (multiplicity of infection=0.4) and incubated with shaking at 32° C. until lysis (90-150 minutes). The lysates were centrifuged (6,000×g) and filtered ([…]) to remove cell debris. The remaining kinases were produced in HEK-293 cells and subsequently tagged with DNA for qPCR detection. Streptavidin-coated magnetic beads were treated with biotinylated small molecule ligands for 30 minutes at room temperature to generate affinity resins for kinase assays. The liganded beads were blocked with excess biotin and washed with blocking buffer (SeaBlock (Pierce), 1% BSA, 0.05% Tween 20, 1 mM DTT) to remove unbound ligand and to reduce non-specific phage binding. Binding reactions were assembled by combining kinases, liganded affinity beads, and test compounds in 1× binding buffer (20% SeaBlock, 0.17×PBS, 0.05% Tween 20, 6 mM DTT). Test compounds were prepared as 100× stocks in 100% DMSO and directly diluted into the assay. All reactions were performed in polypropylene 384-well plates in a final volume of 0.02 ml. The assay plates were incubated at room temperature with shaking for 1 hour and the affinity beads were washed with wash buffer (1×PBS, 0.05% Tween 20). The beads were then re-suspended in elution buffer (1×PBS, 0.05% Tween 20, 0.5 μM non-biotinylated affinity ligand) and incubated at room temperature with shaking for 30 minutes. The kinase concentration in the eluates was measured by qPCR.

KIT (D816H) = target: T2, KIT (D816H) (Homo sapiens, UniProt P10721, D816H); test: KINOMEscan competition binding screen, KIT (D816H); details: for remaining binding at 10 µM: read-out: % Ctrl @ 10 μM
T2 construct: purchased Eurofins DiscoverX Corporation
T2 sequence (P10721 26-976 D816H): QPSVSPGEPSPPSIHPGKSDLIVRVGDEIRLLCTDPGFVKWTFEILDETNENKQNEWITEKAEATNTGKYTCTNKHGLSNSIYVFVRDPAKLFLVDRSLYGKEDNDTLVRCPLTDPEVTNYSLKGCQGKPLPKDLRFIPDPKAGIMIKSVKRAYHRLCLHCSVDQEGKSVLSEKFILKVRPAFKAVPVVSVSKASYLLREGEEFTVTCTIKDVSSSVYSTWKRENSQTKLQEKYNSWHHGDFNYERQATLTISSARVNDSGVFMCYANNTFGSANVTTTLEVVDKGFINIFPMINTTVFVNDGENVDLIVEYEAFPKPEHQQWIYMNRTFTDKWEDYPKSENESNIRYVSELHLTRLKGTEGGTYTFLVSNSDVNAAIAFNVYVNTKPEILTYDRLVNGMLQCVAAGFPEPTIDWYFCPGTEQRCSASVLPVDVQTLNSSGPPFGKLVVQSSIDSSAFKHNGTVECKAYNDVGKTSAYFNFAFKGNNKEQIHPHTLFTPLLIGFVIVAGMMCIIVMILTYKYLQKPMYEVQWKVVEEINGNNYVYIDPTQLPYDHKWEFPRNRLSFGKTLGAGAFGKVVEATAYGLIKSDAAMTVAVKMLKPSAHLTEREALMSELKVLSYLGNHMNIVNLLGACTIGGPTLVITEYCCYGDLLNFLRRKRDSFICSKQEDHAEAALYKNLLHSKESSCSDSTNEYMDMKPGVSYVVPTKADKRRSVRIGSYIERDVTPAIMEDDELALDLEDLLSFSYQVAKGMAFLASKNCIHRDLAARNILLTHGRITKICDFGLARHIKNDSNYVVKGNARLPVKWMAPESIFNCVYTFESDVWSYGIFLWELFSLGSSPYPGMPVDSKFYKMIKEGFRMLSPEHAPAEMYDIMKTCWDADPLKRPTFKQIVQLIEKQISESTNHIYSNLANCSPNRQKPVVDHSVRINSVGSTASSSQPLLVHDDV
Experimental: as §1, §2, §3

KIT (V559D, T670I) = target: T3, KIT (V559D, T670I) (Homo sapiens, UniProt P10721, T670I/V559D); test: KINOMEscan competition binding screen, KIT (V559D, T670I); details: for remaining binding at 10 µM: read-out: % Ctrl @ 10 μM
T3 construct: purchased Eurofins DiscoverX Corporation
T3 sequence (P10721 26-976 V559D/T670I): as the sequence (P10721 26-976 D816H) above, with V534D, T645I, H791D counted along it
Experimental: as §1, §2, §3

SYK = target: T4, SYK (Homo sapiens, UniProt P43405); test: KINOMEscan competition binding screen, SYK; details: for remaining binding at 10 µM: read-out: % Ctrl @ 10 μM
T4 construct: purchased Eurofins DiscoverX Corporation
Experimental: as §1, §2, §3

SRC = target: T5, SRC (Homo sapiens, UniProt P12931); test: KINOMEscan competition binding screen, SRC; details: for remaining binding at 10 µM: read-out: % Ctrl @ 10 μM
T5 construct: purchased Eurofins DiscoverX Corporation
T5 sequence (P12931 whole entry): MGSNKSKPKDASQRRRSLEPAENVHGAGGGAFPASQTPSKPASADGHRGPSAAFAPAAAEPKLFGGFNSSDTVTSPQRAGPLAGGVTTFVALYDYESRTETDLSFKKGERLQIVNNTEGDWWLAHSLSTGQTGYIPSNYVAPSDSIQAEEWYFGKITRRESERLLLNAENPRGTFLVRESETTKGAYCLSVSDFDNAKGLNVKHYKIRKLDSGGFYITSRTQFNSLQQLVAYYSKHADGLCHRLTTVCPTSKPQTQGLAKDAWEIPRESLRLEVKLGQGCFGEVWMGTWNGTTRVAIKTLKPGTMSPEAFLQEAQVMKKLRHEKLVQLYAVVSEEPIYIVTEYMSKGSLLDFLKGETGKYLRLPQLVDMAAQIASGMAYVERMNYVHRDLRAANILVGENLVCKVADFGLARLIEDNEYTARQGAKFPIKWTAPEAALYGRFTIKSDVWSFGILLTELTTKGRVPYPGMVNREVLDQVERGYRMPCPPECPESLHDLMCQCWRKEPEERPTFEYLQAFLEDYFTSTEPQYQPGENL
Experimental: as §1, §2, §3

DDR2 = target: T6, DDR2 (Homo sapiens, UniProt Q16832); test: KINASESEEKER competition binding assay, DDR2; details: minimum 8-point curve, duplicate
T6 construct: purchased Luceome Biotechnologies, LLC
T6 sequence (Q16832 22-855): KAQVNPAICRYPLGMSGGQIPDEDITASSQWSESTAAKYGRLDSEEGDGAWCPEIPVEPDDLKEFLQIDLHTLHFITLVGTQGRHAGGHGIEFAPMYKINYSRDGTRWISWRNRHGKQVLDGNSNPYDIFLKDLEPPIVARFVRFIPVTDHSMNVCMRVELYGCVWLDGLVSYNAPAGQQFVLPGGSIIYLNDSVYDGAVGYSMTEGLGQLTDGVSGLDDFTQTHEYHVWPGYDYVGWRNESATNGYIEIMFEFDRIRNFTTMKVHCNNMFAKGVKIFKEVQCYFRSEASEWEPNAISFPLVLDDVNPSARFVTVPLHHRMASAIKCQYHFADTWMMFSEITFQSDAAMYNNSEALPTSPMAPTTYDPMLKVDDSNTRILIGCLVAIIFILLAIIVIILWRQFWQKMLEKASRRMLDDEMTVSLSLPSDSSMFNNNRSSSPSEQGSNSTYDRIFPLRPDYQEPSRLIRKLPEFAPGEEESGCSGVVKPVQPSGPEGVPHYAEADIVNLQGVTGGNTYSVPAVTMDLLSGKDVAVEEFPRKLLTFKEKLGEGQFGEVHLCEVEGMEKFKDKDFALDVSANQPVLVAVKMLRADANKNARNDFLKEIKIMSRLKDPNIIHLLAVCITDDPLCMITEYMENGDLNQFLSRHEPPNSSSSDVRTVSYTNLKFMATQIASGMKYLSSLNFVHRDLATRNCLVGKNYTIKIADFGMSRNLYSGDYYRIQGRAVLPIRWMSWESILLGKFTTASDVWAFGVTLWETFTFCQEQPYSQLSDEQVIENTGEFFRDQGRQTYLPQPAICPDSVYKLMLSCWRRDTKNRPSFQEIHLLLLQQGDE
Experimental: Kinase assays were performed using KINASESEEKER™ (Luceome Biotechnologies, LLC; Tucson, AZ). KINASESEEKER™ is a homogeneous competition binding assay in which the displacement of an active site-dependent probe by an inhibitor is measured by a change in luminescence signal. Luminescence readout translates into a highly sensitive and robust assay with low background and minimal interference from test compounds. See J. Am. Chem. Soc., 2010, 132, 11727-11735.
Stock solutions of compounds were serially diluted in DMSO to make assay stocks. Prior to initiating IC50 determination, the test compounds were evaluated for false positives against split-luciferase. The compounds were screened against kinases at a minimum of 8 different concentrations in duplicate. For kinase assays, a 24 μL aliquot of lysate containing Cfluc-kinase and Fos-Nfluc was incubated for 2 hours with either 1 μL of DMSO (for no-inhibitor control) or compound solution in DMSO in presence of a kinase specific probe. 80 μL of luciferin assay reagent was added to each solution and luminescence was immediately measured on a luminometer.
The % Inhibition and % Activity Remaining was calculated using the following equation: […]
The % Activity Remaining was plotted against compound concentration and the IC50 was determined for each compound using a minimum 8-point curve.

T1 sequence (P10721 26-976): as the sequence (P10721 26-976 D816H) above, with H791D counted along it

| SMILES | inhibition at 10 µM (KIT) [%] | remaining binding at 10 µM (KIT) [%] | inhibition at 10 µM (KIT (D816H)) [%] | remaining binding at 10 µM (KIT (D816H)) [%] | inhibition at 10 µM (KIT (V559D, T670I)) [%] | remaining binding at 10 µM (KIT (V559D, T670I)) [%] | inhibition at 10 µM (SYK) [%] | remaining binding at 10 µM (SYK) [%] | inhibition at 10 µM (SRC) [%] | remaining binding at 10 µM (SRC) [%] | IC50 (DDR2) [nM] |
| --- | --- | --- | --- | --- | --- | --- | --- | --- | --- | --- | --- |
| Cc1cccc(-c2cc3nccc(Nc4ccccc4)c3s2)c1 [BK40143] | 100 | 0 | 54 | 46 | 81 | 19 | 94.5 | 5.5 | 94.7 | 5.3 | 6030 ± 930 |
| COc1cccc(Nc2ccnc3cc(-c4cccc(C)c4)sc23)c1 [BK40195] | 100 | 0 | 93.9 | 6.1 | 97.5 | 2.5 | 88 | 12 | 99.7 | 0.35 | 1900 ± 260 |
| Cc1cccc(-c2cc3nccc(Nc4cccc(O)c4)c3s2)c1 [BK40196] | 100 | 0 | 94.1 | 3.9 | 97.6 | 2.4 | 97.7 | 2.3 | 99.9 | 0.1 | 922 ± 130 |
| Cc1cccc(-c2cc3nccc(N4CCOCC4)c3s2)c1 [BK40197] | 97.7 | 0.3 | 0 | 100 | 80 | 20 | 56 | 44 | 19 | 81 | – |
